Data on 3 compounds can be found in patent publication US20100029949A1, “Activator for Peroxisome Proliferator Activated Receptor” (priority 2005, published 2010).

What all share (type): cell-based
The target of assay [1] is T1, PPAR α (Homo sapiens, UniProt Q07869).
T1 construct: A receptor expression plasmid (pSG5-GAL4-hPPAR α or γ or δ (LBD)); expressed in transfected cells; host or cells: CV-1 cells (ATCC)
T1 sequence (Q07869 239-466 limits assumed): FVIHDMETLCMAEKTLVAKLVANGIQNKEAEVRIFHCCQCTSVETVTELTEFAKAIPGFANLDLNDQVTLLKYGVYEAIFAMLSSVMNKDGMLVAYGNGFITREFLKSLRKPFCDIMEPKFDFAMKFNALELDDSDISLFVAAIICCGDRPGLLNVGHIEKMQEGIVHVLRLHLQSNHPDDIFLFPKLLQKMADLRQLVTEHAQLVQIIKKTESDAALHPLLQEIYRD
Briefly: GAL4-hPPAR α (LBD) luciferase reporter transactivation in CV-1 cells. To be noted: test compound 10^−6 M, control GW-590735 10^−6 M = 100%. The method, then:
(§1) A receptor expression plasmid (pSG5-GAL4-hPPAR α or γ or δ (LBD)), a luciferase expression plasmid (pUC8-MH100x-4-TK-Luc) and β-galactosidase expression plasmid (pCMX-β-GAL) (Kliewer, S. A., et. al., (1992) Nature, 358:771-774) are transfected into CV-1 cells (ATCC). After gene transfer utilizing a lipofection reagent DMRIE-C or Lipofectamin 2000 (Invitrogen), it is incubated for 42 hours in the presence of the test compound. Then, the luciferase activity and β-GAL activity are measured on the soluble cells. The luciferase activity is calibrated by the β-GAL activity. A relative ligand activity is calculated for each of the PPAR α, γ and δ under the following conditions: a relative activity of PPAR α is calculated in consideration of a luciferase activity (assigned to 100%) of cells treated with the compound GW-590735 (PPARα-selective agonist); a relative activity of PPAR γ is calculated in consideration of a luciferase activity (assigned to 100%) cells treated with Rosiglitazone; and a relative activity of PPAR δ is calculated in consideration of a luciferase activity (assigned to 100%) of cells treated with GW-501516. See the below-described Example 4.
(§2) The PPARδ activating effects of test compounds (compounds of Examples) were measured by the following method: […]
(§3) After gene transfer utilizing a lipofection reagent DMRIE-C or Lipofectamin 2000 (Invitrogen), it is incubated for approx. 40 hours in the presence of the test compound. Then, the luciferase activity and β-GAL activity are measured on the soluble cells. […] A relative ligand activity is calculated for each of the PPAR α, γ and δ under the following conditions: a relative activity of PPAR α is calculated in consideration of a luciferase activity (assigned to 100%) of cells treated with GW-590735 (PPARα-selective agonist); a relative activity of […] is calculated in consideration of a luciferase activity (assigned to 100%) cells treated with Rosiglitazone; and a relative activity of PPARδ is calculated in consideration of a luciferase activity (assigned to 100%) of cells treated with GW-501516.

In assay [2] the target is T2, PPAR γ (Homo sapiens, UniProt P37231).
T2 construct: A receptor expression plasmid (pSG5-GAL4-hPPAR α or γ or δ (LBD)); expressed in transfected cells; host or cells: CV-1 cells (ATCC)
T2 sequence (P37231 238-503 limits assumed): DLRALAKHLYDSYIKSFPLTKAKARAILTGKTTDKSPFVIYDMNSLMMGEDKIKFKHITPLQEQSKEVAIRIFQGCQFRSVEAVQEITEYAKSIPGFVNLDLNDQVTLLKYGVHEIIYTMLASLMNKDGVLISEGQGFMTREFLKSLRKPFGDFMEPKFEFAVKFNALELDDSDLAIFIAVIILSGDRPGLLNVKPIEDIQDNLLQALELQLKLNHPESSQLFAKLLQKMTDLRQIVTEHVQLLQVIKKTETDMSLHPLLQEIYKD
The experiment in a line: GAL4-hPPAR γ (LBD) luciferase reporter transactivation in CV-1 cells. The conditions noted are these: test compound 10^−6 M, control Rosiglitazone 10^−5 M = 100%. The method, then: as §1, §2, §3

Assay [3] deals with T3, PPAR δ (Homo sapiens, UniProt Q03181).
T3 construct: A receptor expression plasmid (pSG5-GAL4-hPPAR α or γ or δ (LBD)); expressed in transfected cells; host or cells: CV-1 cells (ATCC)
T3 sequence (Q03181 211-439 limits assumed): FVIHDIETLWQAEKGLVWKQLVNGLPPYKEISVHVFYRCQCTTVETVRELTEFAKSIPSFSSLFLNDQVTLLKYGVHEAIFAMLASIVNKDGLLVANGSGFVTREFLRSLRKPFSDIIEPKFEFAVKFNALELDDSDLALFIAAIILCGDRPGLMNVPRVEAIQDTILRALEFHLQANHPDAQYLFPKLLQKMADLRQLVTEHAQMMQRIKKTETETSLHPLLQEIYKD
Briefly: GAL4-hPPAR δ (LBD) luciferase reporter transactivation in CV-1 cells. The conditions noted are these: test compound 10^−6 M, control GW-501516 10^−7 M = 100%. Here is the method: as §1, §2, §3

Each structure is given as a SMILES string.

Turning to `Cc1cc2c(CCc3cc(-c4ccc(C(F)(F)F)cc4)nn3C(C)C)noc2cc1OC(C)(C)C(=O)O` [Example 1, 2-[3-[2-[1-Isopropyl-3-(4-trifluoromethylphenyl)-1H-pyrazol-5-yl]ethyl]-5-methylbenzisoxazol-6-yloxy]-2-methylpropionic acid], the “PPAR α activity: relative value (%) of the test compound to 100% of the control compound” value in assay [1] was determined as 62.7%. For the same compound, the “PPAR γ activity: relative value (%) of the test compound to 100% of the control compound” value in assay [2] came to 5.4%. Also, in assay [3], the “PPAR δ activity: relative value (%) of the test compound to 100% of the control compound” value is 84.7%.
The matching figures for `Cc1cc2c(CCc3cc(-c4ccc(C(F)(F)F)cc4)nn3C(C)C)noc2cc1OCC(=O)O` [Example 2, 3-[2-[1-Isopropyl-3-(4-trifluoromethylphenyl)-1H-pyrazol-5-yl]ethyl]-5-methylbenzisoxazol-6-yloxyacetic acid]: 103.0%, 13.4% and 94.4%.
With `Cc1cc2c(CCc3cn(-c4ccc(C(F)(F)F)cc4)nc3C(C)C)noc2cc1OC(C)(C)C(=O)O` [Example 3, 2-[3-[2-[3-Isopropyl-1-(4-trifluoromethylphenyl)-1H-pyrazol-4-yl]ethyl]-5-methylbenzisoxazol-6-yloxy]-2-methylpropionic acid], in assay [1], the “PPAR α activity: relative value (%) of the test compound to 100% of the control compound” value worked out at 0.2%. Also, in assay [2], the “PPAR γ activity: relative value (%) of the test compound to 100% of the control compound” value amounted to 0.3%. Also, the “PPAR δ activity: relative value (%) of the test compound to 100% of the control compound” value in assay [3] was 87.8%.
